Results reported in patent US20190160030A1, “CARBOXYLIC ACIDS FOR EARLY CHILDHOOD APPLICATION” (PROPONENT BIOTECH GMBH, priority 2016, published 2019).

Columns and labels:
[1] = test system: Nickel allergen contact hypersensitivity; assay: Contact hypersensitivity to Nickel allergen, topical propionate solution, clinical score of skin lesion; assay type: in vivo, human; settings: topical propionate solution subsequent to exposure to Nickel; worded as 'can be'
From the text: In this regard, human volunteers can be topically administered a propionate solution subsequent to exposure to a known allergen (e. g. Nickel); see Example 2. Symptoms of dermatitis and/or eczema can be observed, i.e. an allergic reaction. […] Accordingly, the compositions and methods of the invention as described herein in the various embodiments or aspects are, inter alia, effective following contact hypersensitivity to nickel. In addition, compositions and methods of the invention are effective in improving skin repair following an abrasion. Overall, treatment of skin with a solution containing propionate is effective at dampening skin diseases such as dermatitis and/or eczema and reducing redness of the skin, skin lesions, wrinkles, impurities and/or irregularities of the skin by improving the barrier function of the skin. […] The composition of the invention as described herein in the various embodiments or aspects can, inter alia, be applied topically and is relevant for the healthcare and cosmetics industry.
Allergic hypersensitivity can be induced through contact sensitization with Nickel allergen over a 12 hour time period. […] Clinical score of skin lesion can be determined by using protocols known in the art.

[2] = test system: BALBC/J neonates epicutaneously sensitized with house dust mite (HDM); assay: Neonatal topical treatment in the epicutaneous HDM atopic dermatitis model: skin inflammatory score, TEWL, skin histology; assay type: in vivo, mouse
Method: A) Skin inflammatory scoring (0—Normal; 1—Mild inflammation, 2—Moderate inflammation; 3—Marked inflammation; 4—Severe inflammation; 5—Very severe inflammation) was performed (blinded for the experimental conditions) on 8-10 representative images of haematoxylin and eosin stained paraffin embedded skin tissue sections (4 μM).
B) Transepidermal water loss (TEWL) measurement was performed 24 hours after the end of the third epicutaneous HDM sensitization round. Three measurements were taken per mouse. n=5 mice per group.
Skin tissue from the sensitized area was fixed in formalin, embedded in paraffin and 4 μM tissue sections were stained with haematoxylin and eosin. Representative images from vehicle treated controls (left) or sodium propionate treated mice (right) are shown at a 10× magnification. Inserts are shown at a 20× magnification.
First generation BALBC/J (Charles River) neonates were topically treated on dorsal skin with 5 mg sodium propionate (50 μl of a 100 mg/ml Sodium propionate solution; Sodium propionate (Sigma Aldrich; catalogue number P5436) was dissolved in 0.9% NaCl and sterile filtered) or vehicle control (0.9% NaCl; Laboratorium G. Bichsel AG; catalogue number 1000096) on day 4 and 6 after birth. Ten days post birth epicutaneous sensitization with 15 μg house dust mite (HDM) (Greer Laboratories Inc.; catalogue number B84) was started. Epicutaneous sensitization was performed by application of gauze (Dermaplast; catalogue number 214 010) soaked in 15 μg HDM on the dorsal skin of the neonate, which was secured by a bioclusive dressing (Systagenix; catalogue number 2463) and covered with adhesive tape (Mölnlycke Health Care; catalogue number 310500) to prevent removal of the gauze and consequently HDM ingestion. The sensitization was performed for three consecutive weeks, each week consisting of five consecutive days of sensitization, with a change of the gauze on day 3 and removal of the gauze on day 5, followed by a 2 day recovery period. […]

[3] = test system: BALBC/J neonates sensitized and intranasally challenged with house dust mite (HDM); assay: Lung analysis after intranasal HDM challenge in the same model: BAL cell counts, PAS mucus staining; assay type: in vivo, mouse; settings: topical 5 mg sodium propionate vs vehicle, n=5 mice per group
Method: A) Airway eosinophil counts and B) airway neutrophils counts were determined in cytospins from bronchoalveolar lavage fluid collected at 72 hours after the last intranasal challenge.
C) Mucus production in the lung was quantified as the frequency of fully periodic acid-Schiff (PAS) stained cells in representative images of small and medium airways from PAS stained paraffin embedded lung tissue sections (4 μM). n=5 mice per group.
First generation BALBC/J (Charles River) neonates were topically treated on dorsal skin with 5 mg sodium propionate (50 μl of a 100 mg/ml Sodium propionate solution; Sodium propionate (Sigma Aldrich; catalogue number P5436) was dissolved in 0.9% NaCl and sterile filtered) or vehicle control (0.9% NaCl; Laboratorium G. Bichsel AG; catalogue number 1000096) on day 4 and 6 after birth. Ten days post birth epicutaneous sensitization with 15 μg house dust mite (HDM) (Greer Laboratories Inc.; catalogue number B84) was started. […]
Mouse tracheas were canulated and bronchoalveolar lavage (BAL) was performed with 500 μl PBS 0.2% BSA solution. Total BAL cell counts were determined using a Coulter Counter, and differential cell counts were determined on cytospin preparations of the BAL fluid. […]

CCC(=O)[O-].[Na+] [propionate, Sodium propionate]
clinical score (symptoms of dermatitis and/or eczema) [1]: significantly reduced
allergic dermatitis skin inflammation ([2]; topical 5 mg sodium propionate vs vehicle (0.9% NaCl), skin inflammatory scoring 0-5 on H&E skin sections, n=5 mice per group): protects against
epidermal thickening ([2]; topical 5 mg sodium propionate vs vehicle, H&E stained skin sections from sensitized area): protects against
disruption of skin barrier (transepidermal water loss, TEWL) ([2]; topical 5 mg sodium propionate vs vehicle, TEWL 24 hours after end of third epicutaneous HDM sensitization round, n=5 mice per group): protects against
allergic airway inflammation (airway eosinophil and neutrophil counts) ([3]; BAL fluid cytospins 72 hours after last intranasal challenge): protects against
mucus production in the lung (frequency of PAS stained cells) ([3]; PAS stained lung sections, small and medium airways): protects against
